Data reported in article PMC8530378, “Comparison of: (2S,4R)-4-[^18F]Fluoroglutamine, [^11C]Methionine, and 2-Deoxy-2-[^18F]Fluoro-D-Glucose and Two Small-Animal PET/CT Systems Imaging Rat Gliomas” (Frontiers in Oncology, 2021).

Tests used:
[1] = test system: BT4C glioma and healthy brain ROIs; assay: Irreversible two-tissue compartment model of dynamic [^18F]FGln PET; type: in vivo, BDIX rats; conditions: irreversible 2-tissue model, n = 13; for K1 (AB) plasma to tissue transport rate / K1/k2 (AB) equilibrium distribution volume / k3 (AB) rate constant / k3/(k2+k3) (AB): arterial blood input; for K1 (FP) plasma to tissue transport rate / K1/k2 (FP) equilibrium distribution volume / k3 (FP) rate constant / k3/(k2+k3) (FP): free parent plasma input; for K1 (P) plasma to tissue transport rate / K1/k2 (P) equilibrium distribution volume / k3 (P) rate constant / k3/(k2+k3) (P): unbound plasma input
Text: (§1) The dynamic PET image data was then extracted from each separate image and converted to standardized uptake values (SUV) which account for ROI volume, mean ROI radioactivity, subject weight, and total injected radioactivity dose (corrected for decay, residual syringe and cannula radioactivity). The results are shown as SUV ROI radioactivity curves over time as well as tumor-to-healthy brain region (TBR) ratios for improved comparisons. [^18F]FGln uptake data and blood radioactivity data (corrected for bioavailability fraction over time) were also input into multiple pharmacokinetic models described in the "[^18F]FGln Pharmacokinetic Modeling" section.
(§2) Blood input values from the heart left ventricle ROI in the PET image data were corrected for bioavailable fraction with Eqn. 2. Logan ([25]), Patlak ([26]), and two two-compartment models ([27]) (reversible and irreversible) were applied to whole-blood, unbound plasma fraction, and unbound plasma fraction assayed for parent-radiopharmaceutical purity as inputs for tumor and healthy brain ROIs. Mean, standard deviation, and two-tailed unpaired Student's t-test (for camera comparison, modeling values, and gender differences) p-values are reported where applicable.

[2] = test system: BT4C glioma and healthy brain ROIs; assay: Reversible two-tissue compartment model of dynamic [^18F]FGln PET; type: in vivo, BDIX rats; conditions: reversible 2-tissue model, n = 13; for K1 (AB) plasma to tissue transport rate / K1/k2 (AB) equilibrium distribution volume / k3 (AB) rate constant / k3/k4 (AB): arterial blood input; for K1 (FP) plasma to tissue transport rate / K1/k2 (FP) equilibrium distribution volume / k3 (FP) rate constant / k3/k4 (FP): free parent plasma input; for K1 (P) plasma to tissue transport rate / K1/k2 (P) equilibrium distribution volume / k3 (P) rate constant / k3/k4 (P): unbound plasma input
Text: as §1, §2

BT4C gliomas = assay: Ex vivo brain autoradiography, tumor-to-healthy brain uptake ratio; type: in vivo; conditions: ex vivo autoradiography of brain slices, BT4C glioma-bearing BDIX rats
Protocol: Ex vivo biodistribution studies were performed for [^18F]FGln with a complete organ list and results are listed in the Supplementary Material Some subjects from each radiopharmaceutical imaging group were sacrificed for autoradiographical and histological studies immediately after PET imaging. All autoradiography images were analyzed with Carimas software (Turku PET Centre, Turku, Finland).
The excised brains containing tumors were frozen with liquid nitrogen, sectioned with a Leica CM3050S cryotome into alternating 20 and 8 µm slices on different slides for hematoxylin/eosin and future histochemical staining respectively. […] The slides were then stained with hematoxylin/eosin and digitally scanned with a Pannoramic 250 Flash slide scanner (3DHistech, Budapest, Hungary) Autoradiographs and light micrographs were then aligned in Carimas software (Turku PET Centre, Turku, Finland) and analyzed therein.

[3] = test system: BT4C glioma and healthy brain ROIs; assay: Logan plot (reversible uptake model) of dynamic [^18F]FGln PET; type: in vivo, BDIX rats; conditions: n = 13; for DV (AB): arterial blood radioactivity input; for DV (P): unbound plasma radioactivity fraction input
Text: as §1, §2

[4] = [^18F]FGln in vivo stability analysis (bioavailable fraction of whole blood radioactivity); conditions: both sexes, BDIX, rat, 40 MBq, healthy BDIX rats, approximately 60 min post-injection, n = 10, read-out: Bioavailable [^18F]FGln-fraction of total blood radioactivity
Protocol: Additional healthy BDIX rats (n = 10, 5 male, 5 female) were injected with approximately 40 MBq of [^18F]FGln and 150–200 µL aliquots of blood drawn at 5, 15, 30, 45, and 60 min into a heparin coated vial at 5°C to be assayed. During the final 60 min collection time point, animals were sacrificed under deep anesthesia via cardiac puncture and cervical dislocation. All radioactivity measurements were performed with a 3″ Nal system (Triathler, Hidex Oy, Turku Finland). Whole blood was weighed and measured for radioactivity before being centrifuged at 700 ×g and 4°C for 5 min. The plasma was separated out before being weighed and gamma counted followed by storage on ice for the later described assays. Hematocrit values used were averaged separately for male and female populations with five samples for each group. The following Equation 1 ([23]) was then used to calculate the radioactivity fraction taken up by the red blood cells and the available plasma fraction to avoid including plasma contamination in the blood cell fraction: […]
Where C = radioactivity concentration, ρ = density, RBC = red blood cell, and HCT = hematocrit. […]
Plasma aliquots (80 µL) were then precipitated with methanol (200 µL) before being vortexed thoroughly and centrifuged at 11,000 ×g for 10 min. The two fractions were separated and measured for radioactivity to calculate the unbound radioactivity fraction of the plasma. […]

orthotopic BT4C gliomas = assay: Dynamic PET/CT imaging of orthotopic BT4C gliomas, tumor-to-healthy brain uptake ratio (TBR); type: in vivo; conditions: dynamic PET images, both cameras pooled, BT4C glioma-bearing BDIX rats
Protocol: The 16 glioma-bearing BDIX-Ifz rats (herein "BDIX") for imaging studies (8 weeks old, 9 males and 7 females) were anesthetized under 2-2.5% isoflurane and given buprenorphine (0.01 mg/kg) and carprofen (5 mg/kg) for analgesia during surgery. […] All animals were sacrificed after either the final imaging (PET studies) or the final blood sample collection (metabolism studies) under deep isoflurane anesthesia (4%) via cervical dislocation after cardiac puncture to collect terminal blood samples. […] The injected amount of radioactivity also varied based on camera and radionuclide. […] Each PET image was separately examined, in the initial 20 s of frames for the amino-acid-based radiopharmaceuticals and 40-60 min frames for [^18F]FDG, to manually delineate heart left ventricle cavity voxels to use as a blood radioactivity estimation region of interest (ROI). […] The dynamic PET image data was then extracted from each separate image and converted to standardized uptake values (SUV) which account for ROI volume, mean ROI radioactivity, subject weight, and total injected radioactivity dose (corrected for decay, residual syringe and cannula radioactivity). The results are shown as SUV ROI radioactivity curves over time as well as tumor-to-healthy brain region (TBR) ratios for improved comparisons. […]

[5] = test system: BT4C glioma and healthy brain ROIs; assay: Patlak plot (irreversible uptake model) of dynamic [^18F]FGln PET; type: in vivo, BDIX rats; conditions: n = 13; for Ic (AB) y intercept: arterial blood input; for Ic (FP) y intercept: free parent plasma input; for Ic (P) y intercept: unbound plasma input
Text: as §1, §2

NC(=O)[C@H]([18F])C[C@H](N)C(=O)O [[^18F]FGln, (2S,4R)-4-[^18F]Fluoroglutamine]
K1 (AB) plasma to tissue transport rate ([1]; healthy brain): 0.063 ± 0.053 mL min^-1 mL^-1 | K1/k2 (AB) equilibrium distribution volume ([1]; healthy brain): 0.338 ± 0.159 mL mL^-1 | k3 (AB) rate constant ([1]; healthy brain): 0.022 ± 0.010 min⁻¹ | k3/(k2+k3) (AB) ([1]; healthy brain): 0.126 ± 0.068 min min^-1 | K1 (FP) plasma to tissue transport rate ([1]; healthy brain): 0.033 ± 0.018 mL min^-1 mL^-1 | K1/k2 (FP) equilibrium distribution volume ([1]; healthy brain): 0.524 ± 0.324 mL mL^-1 | k3 (FP) rate constant ([1]; healthy brain): 0.064 ± 0.063 min⁻¹ | k3/(k2+k3) (FP) ([1]; healthy brain): 0.420 ± 0.146 min min^-1 | K1 (P) plasma to tissue transport rate ([1]; healthy brain): 0.024 ± 0.017 mL min^-1 mL^-1 | K1/k2 (P) equilibrium distribution volume ([1]; healthy brain): 0.221 ± 0.105 mL mL^-1 | k3 (P) rate constant ([1]; healthy brain): 0.028 ± 0.014 min⁻¹ | k3/(k2+k3) (P) ([1]; healthy brain): 0.215 ± 0.096 min min^-1 | K1 (AB) plasma to tissue transport rate ([1]; tumor): 0.088 ± 0.039 mL min^-1 mL^-1 | K1/k2 (AB) equilibrium distribution volume ([1]; tumor): 0.876 ± 0.29 mL mL^-1 | k3 (AB) rate constant ([1]; tumor): 0.017 ± 0.005 min⁻¹ | k3/(k2+k3) (AB) ([1]; tumor): 0.156 ± 0.078 min min^-1 | K1 (FP) plasma to tissue transport rate ([1]; tumor): 0.083 ± 0.113 mL min^-1 mL^-1 | K1/k2 (FP) equilibrium distribution volume ([1]; tumor): 1.841 ± 0.967 mL mL^-1 | k3 (FP) rate constant ([1]; tumor): 0.105 ± 0.246 min⁻¹ | k3/(k2+k3) (FP) ([1]; tumor): 0.385 ± 0.157 min min^-1 | K1 (P) plasma to tissue transport rate ([1]; tumor): 0.037 ± 0.015 mL min^-1 mL^-1 | K1/k2 (P) equilibrium distribution volume ([1]; tumor): 0.685 ± 0.330 mL mL^-1 | k3 (P) rate constant ([1]; tumor): 0.017 ± 0.007 min⁻¹ | k3/(k2+k3) (P) ([1]; tumor): 0.226 ± 0.078 min min^-1 | K1 (AB) plasma to tissue transport rate ([2]; healthy brain): 0.118 ± 0.132 mL min^-1 mL^-1 | K1/k2 (AB) equilibrium distribution volume ([2]; healthy brain): 0.248 ± 0.128 mL mL^-1 | k3 (AB) rate constant ([2]; healthy brain): 0.060 ± 0.039 min⁻¹ | k3/k4 (AB) ([2]; healthy brain): 3.279 ± 1.395 min min^-1 | K1 (FP) plasma to tissue transport rate ([2]; healthy brain): 0.033 ± 0.023 mL min^-1 mL^-1 | K1/k2 (FP) equilibrium distribution volume ([2]; healthy brain): 0.528 ± 0.363 mL mL^-1 | k3 (FP) rate constant ([2]; healthy brain): 0.196 ± 0.354 min⁻¹ | k3/k4 (FP) ([2]; healthy brain): 4.462 ± 1.312 min min^-1 | K1 (P) plasma to tissue transport rate ([2]; healthy brain): 0.041 ± 0.031 mL min^-1 mL^-1 | K1/k2 (P) equilibrium distribution volume ([2]; healthy brain): 0.137 ± 0.062 mL mL^-1 | k3 (P) rate constant ([2]; healthy brain): 0.086 ± 0.039 min⁻¹ | k3/k4 (P) ([2]; healthy brain): 4.021 ± 1.249 min min^-1 | K1 (AB) plasma to tissue transport rate ([2]; tumor): 0.133 ± 0.079 mL min^-1 mL^-1 | K1/k2 (AB) equilibrium distribution volume ([2]; tumor): 0.551 ± 0.221 mL mL^-1 | k3 (AB) rate constant ([2]; tumor): 0.073 ± 0.054 min⁻¹ | k3/k4 (AB) ([2]; tumor): 2.901 ± 1.331 min min^-1 | K1 (FP) plasma to tissue transport rate ([2]; tumor): 0.057 ± 0.023 mL min^-1 mL^-1 | K1/k2 (FP) equilibrium distribution volume ([2]; tumor): 1.646 ± 2.403 mL mL^-1 | k3 (FP) rate constant ([2]; tumor): 0.291 ± 0.481 min⁻¹ | k3/k4 (FP) ([2]; tumor): 4.466 ± 1.378 min min^-1 | K1 (P) plasma to tissue transport rate ([2]; tumor): 0.052 ± 0.026 mL min^-1 mL^-1 | K1/k2 (P) equilibrium distribution volume ([2]; tumor): 0.331 ±0.125 mL mL^-1 | k3 (P) rate constant ([2]; tumor): 0.231 ± 0.478 min⁻¹ | k3/k4 (P) ([2]; tumor): 3.191 ± 1.559 min min^-1 | Tumor-to-healthy brain uptake ratio (BT4C gliomas): 4.07 ± 0.49 | Tumor DV/Healthy Brain DV (FP) ([3]; free parent plasma input): 2.31 ± 0.40 | DV (AB) ([3]; healthy brain ROI): 0.66 ± 0.19 | DV (FP) ([3]; healthy brain ROI, free parent plasma input): 1.72 ± 0.66 | DV (P) ([3]; healthy brain ROI): 0.48 ± 0.14 | DV (AB) ([3]; tumor ROI): 1.35 ± 0.36 | DV (FP) ([3]; tumor ROI, free parent plasma input): 4.00 ± 1.96 | DV (P) ([3]; tumor ROI): 1.00 ± 0.30 | bioavailability at 60 min [4]: 28.1% | Average tumor-to-healthy brain tissue uptake ratio (TBR), maximum (orthotopic BT4C gliomas): 1.99 ± 0.19 | Ic (AB) y intercept ([5]; healthy brain): 0.376 ± 0.114 | Ic (FP) y intercept ([5]; healthy brain): 0.495 ± 0.195 | Ic (P) y intercept ([5]; healthy brain): 0.236 ± 0.076 | Ic (AB) y intercept ([5]; tumor): 0.676 ± 0.221 | Ic (FP) y intercept ([5]; tumor): 0.823 ± 0.376 | Ic (P) y intercept ([5]; tumor): 0.418 ± 0.149

2-deoxy-2-[^18F]fluoro-D-glucose [[^18F]FDG]
Tumor-to-healthy brain uptake ratio (BT4C gliomas): 2.93 ± 0.57 | Average tumor-to-healthy brain tissue uptake ratio (TBR), maximum (orthotopic BT4C gliomas): 1.41 ± 0.11
